How the values were obtained:
[1] = test system: renovascular hypertensive rats; test: Effect on reducing blood pressure of renovascular hypertensive rats by single oral administration; type: in vivo, Wistar rats; conditions: for change in vivo at 0.5 mg/kg / inhibition in vivo at 0.5 mg/kg / change in vivo at 1 mg/kg / inhibition in vivo at 1 mg/kg / change in vivo at 2 mg/kg / inhibition in vivo at 2 mg/kg: Rattus norvegicus, single oral administration; for change in vivo at 0.5 mg/kg / change in vivo at 1 mg/kg / change in vivo at 2 mg/kg: RHR, read-out: Variations on heart rate; for inhibition in vivo at 0.5 mg/kg / inhibition in vivo at 1 mg/kg / inhibition in vivo at 2 mg/kg: two-kidney one-clip RHR, measured 1-10 h, read-out: Maximum blood pressure reduction; for blood pressure reduction effect compared with Azilsartan medoxomil: renal artery-ligated rat, result in words
normal rats = test: Effect on blood pressure of normal rats by single oral administration; type: in vivo, Wistar rats; conditions: Rattus norvegicus, po, single, normal rats; for inhibition in vivo at 0.5 mg/kg / inhibition in vivo at 1 mg/kg / inhibition in vivo at 2 mg/kg: 8 h, read-out: blood pressure reduction at 8 h after the administration; for inhibition in vivo at 0.5 mg/kg / change in vivo at 0.5 mg/kg: 0.5 mg/kg p.o.; for inhibition in vivo at 1 mg/kg / change in vivo at 1 mg/kg: 1.0 mg/kg p.o.; for inhibition in vivo at 2 mg/kg / change in vivo at 2 mg/kg: 2.0 mg/kg p.o.; for change in vivo at 0.5 mg/kg / change in vivo at 1 mg/kg / change in vivo at 2 mg/kg: read-out: variations on heart rate

SMILES | change in vivo at 0.5 mg/kg [1] | inhibition in vivo at 0.5 mg/kg [1] | change in vivo at 1 mg/kg [1] | inhibition in vivo at 1 mg/kg [1] | change in vivo at 2 mg/kg [1] | inhibition in vivo at 2 mg/kg [1] | inhibition in vivo at 0.5 mg/kg (normal rats) | inhibition in vivo at 1 mg/kg (normal rats) | inhibition in vivo at 2 mg/kg (normal rats) | change in vivo at 0.5 mg/kg (normal rats) | change in vivo at 1 mg/kg (normal rats) | change in vivo at 2 mg/kg (normal rats) | blood pressure reduction effect compared with Azilsartan medoxomil [1]
CCOc1nc2cccc(C(=O)Oc3ccc(OCc4c(-c5ccccc5)no[n+]4[O-])cc3)c2n1Cc1ccc(-c2ccccc2-c2noc(=O)[nH]2)cc1 [QR01010] | 5% | 21 ± 4.7% | -3 ± 1% | 26 ± 5.4% | -5 ± 3% | 30 ± 3.6% | 2.1 ± 3.2% | 4.6 ± 4.7% | 5.7 ± 2.3% | 5% | -5 ± 1% | -4 ± 5% | –
CCOc1nc2cccc(C(=O)OCOC(=O)OC(C)C)c2n1Cc1ccc(-c2ccccc2-c2noc(=O)[nH]2)cc1 [QR01002] | -5 ± 4% | 12 ± 2.4% | -8 ± 3% | 15 ± 1.8% | -6 ± 4% | 19 ± 4.2% | 5.6 ± 2.3% | 6.4 ± 2.1% | 6.4 ± 2.1% | -4 ± 5% | -5 ± 4% | 5% | –
CCOc1nc2cccc(C(=O)OCCCCO[N+](=O)[O-])c2n1Cc1ccc(-c2ccccc2-c2noc(=O)[nH]2)cc1 [QR01008] | -8 ± 5% | 17 ± 3.1% | -15 ± 3% | 28 ± 3.4% | -18 ± 5% | 35 ± 3.4% | 4.5 ± 2.7% | 4.6 ± 2.5% | 2.1 ± 2.4% | -6 ± 2% | 4% | -2 ± 3% | close to that of Azilsartan medoxomil
CCOc1nc2cccc(C(=O)OCCO[N+](=O)[O-])c2n1Cc1ccc(-c2ccccc2-c2noc(=O)[nH]2)cc1 [QR01016] | 1% | 11 ± 3.1% | 5% | 12 ± 9.2% | 4% | 15 ± 6.5% | 3.6 ± 2.8% | 4.2 ± 5.7% | 5.9 ± 3.2% | 1% | 5% | 3% | –
CCOc1nc2cccc(C(=O)OCc3no[n+]([O-])c3C(C)(C)C)c2n1Cc1ccc(-c2ccccc2-c2noc(=O)[nH]2)cc1 [QR01026] | -8 ± 6% | 16 ± 2.8% | -10 ± 5% | 24 ± 6.5% | -10 ± 6% | 31 ± 2.8% | 5.2 ± 3.2% | 4.3 ± 5.1% | 3.8 ± 4.5% | -5 ± 8% | -3 ± 7% | -4 ± 7% | –
CCOc1nc2cccc(C(=O)OCc3nc(C)c(C)nc3C)c2n1Cc1ccc(-c2ccccc2-c2noc(=O)[nH]2)cc1 [QR01006] | -4 ± 2% | 14 ± 3.4% | -5 ± 3% | 18 ± 3.6% | -5 ± 3% | 24 ± 4.1% | 6.3 ± 2.8% | 7.2 ± 1.9% | 4.2 ± 2.1% | -3 ± 4% | 2% | -5 ± 6% | –
CCOc1nc2cccc(C(=O)OCc3c(C)no[n+]3[O-])c2n1Cc1ccc(-c2ccccc2-c2noc(=O)[nH]2)cc1 [QR01025] | 4 ± 6% | 18 ± 3.4% | -7 ± 5% | 22 ± 4.5% | -7 ± 3% | 28 ± 3.2% | 3.3 ± 3.2% | 6.2 ± 3.8% | 3.7 ± 4.1% | -2 ± 3% | 6% | -3 ± 4% | –
CCOc1nc2cccc(C(=O)OCOC(=O)OCc3cn(C)cn3)c2n1Cc1ccc(-c2ccccc2-c2noc(=O)[nH]2)cc1 [QR01031] | -11 ± 5% | 18 ± 3.5% | -18 ± 6% | 25 ± 5.7% | -17 ± 5% | 32 ± 2.6% | 2.9 ± 2.6% | 4.5 ± 3.8% | 4.7 ± 3.1% | -5 ± 5% | -4 ± 3% | -8 ± 4% | –
CCOc1nc2cccc(C(=O)OC3COC4C(O[N+](=O)[O-])COC34)c2n1Cc1ccc(-c2ccccc2-c2noc(=O)[nH]2)cc1 (stereo not shown) [QR01007] | -3 ± 1% | 10 ± 1.5% | -8 ± 3% | 12 ± 2% | -5 ± 2% | 18 ± 3.5% | 3.5 ± 3.4% | 2.5 ± 4.6% | 3.7 ± 4.3% | -3 ± 2% | -7 ± 2% | 5% | –
CCOc1nc2cccc(C(=O)OC(OC(=O)OCc3nc(C)c(C)nc3C)C(C)C)c2n1Cc1ccc(-c2ccccc2-c2noc(=O)[nH]2)cc1 (stereo not shown) [QR01027] | -2 ± 3% | 14 ± 2% | -5 ± 3% | 18 ± 2.9% | -6 ± 4% | 23 ± 4.6% | 5.2 ± 3% | 4.8 ± 4.2% | 2.8 ± 3.9% | -3 ± 4% | 5% | -3 ± 4% | –
CCOc1nc2cccc(C(=O)OCOC(=O)OCc3ccn(C)c3)c2n1Cc1ccc(-c2ccccc2-c2noc(=O)[nH]2)cc1 [QR01032] | -8 ± 6% | 20 ± 4.1% | -9 ± 4% | 28 ± 3.1% | -9 ± 5% | 35 ± 4.6% | 4.7 ± 3.1% | 5.2 ± 2.7% | 4.8 ± 3.6% | -8 ± 6% | -5 ± 2% | -3 ± 5% | close to that of Azilsartan medoxomil
CCOc1nc2cccc(C(=O)OCOC(=O)OCc3ccno3)c2n1Cc1ccc(-c2ccccc2-c2noc(=O)[nH]2)cc1 [QR01030] | -12 ± 6% | 18 ± 2% | -20 ± 6% | 25 ± 3.6% | -18 ± 7% | 30 ± 4.6% | 2.9 ± 3% | 5.2 ± 4.3% | 3.7 ± 5.8% | -2 ± 4% | 4% | -3 ± 5% | –
CCOc1nc2cccc(C(=O)ONC(=N)Nc3ccccc3)c2n1Cc1ccc(-c2ccccc2-c2noc(=O)[nH]2)cc1 [QR01012] | 2% | 17 ± 3.7% | -3 ± 4% | 22 ± 1% | -5 ± 2% | 27 ± 2.8% | 1.9 ± 3.2% | 3.9 ± 2.1% | 4.6 ± 2.4% | 1% | -3 ± 2% | -3 ± 4% | –
CCOc1nc2cccc(C(=O)OCCCCOc3no[n+]([O-])c3S(=O)(=O)c3ccccc3)c2n1Cc1ccc(-c2ccccc2-c2noc(=O)[nH]2)cc1 [QR01011] | -5 ± 3% | 16 ± 4.3% | -8 ± 6% | 28 ± 1.3% | -6 ± 4% | 29 ± 4% | 2.7 ± 3.6% | 3.8 ± 2.1% | 3.7 ± 5% | -3 ± 5% | 6% | -5 ± 3% | close to that of Azilsartan medoxomil
CCOc1nc2cccc(C(=O)OC(OC(=O)OCc3nc(C)c(C)nc3C)C(C)(C)C)c2n1Cc1ccc(-c2ccccc2-c2noc(=O)[nH]2)cc1 (stereo not shown) [QR01028] | -6 ± 2% | 15 ± 0.9% | -6 ± 4% | 18 ± 4.2% | -12 ± 5% | 25 ± 3.6% | 1.7 ± 5.3% | 3.9 ± 5.2% | 2.5 ± 4.6% | -4 ± 3% | -3 ± 4% | -2 ± 3% | –
CCOc1nc2cccc(C(=O)OC3CCc4c3no[n+]4[O-])c2n1Cc1ccc(-c2ccccc2-c2noc(=O)[nH]2)cc1 (stereo not shown) [QR01035] | -14 ± 6% | 20 ± 3.1% | -23 ± 6% | 28 ± 4.5% | -26 ± 5% | 36 ± 4.6% | 6.4 ± 2.1% | 3.4 ± 2.5% | 6.1 ± 3.8% | -4 ± 3% | -3 ± 3% | 6% | close to that of Azilsartan medoxomil

— patent US9708306B2, “Benzimidazole derivatives and preparation process and pharmaceutical uses thereof” (WUHAN LL SCIENCE AND TECHNOLOGY DEVELOPMENT CO., LTD, priority 2015, dated 2017)
